Assay results reported in patent publication US5273972A, “[(2-diakylaminomethyl)-3-quinuclidinyl]-benzamides and benzoates” (priority 1992, dated 1993).

What was measured:
[1] = test system: cisplatin-induced emesis; assay: Cisplatin-induced emesis in dogs (antiemetic); type: in vivo, dog; conditions: for inhibition in vivo at 1 mg/kg: Canis lupus familiaris, iv, 5 h, read-out: % inhibition of cisplatin-induced emesis
Description: The procedure used to test compounds of the present invention for antiemetic properties is a modification of the method of Gylys et al, Res. Commun, Chem. Pathol. Pharm., 23, 61(1979).
Adult, mongrel, unfasted dogs of both sexes were randomly assigned into treatment groups, with each treatment group consisting of four dogs. On the dosing day all dogs were given cisplatin, 3.0 mg/kg, intravenously. Sixty minutes later, the dogs in the control treatment group were given deionized water, 0.1 ml/kg intravenously. The dogs in the test group were given a test compound at an appropriate dose intravenously. All doses were administered as a solution by means of a syringe and needle, and each dog's emetic episodes were recorded for 5 hours after the administration of cisplatin.

[2] = test system: dopamine D2 -receptor; conditions: reported in USSR Pat. No. SU-414-261; cited from earlier work
[3] = test system: emesis; conditions: reported by Mikhlina et al, Khim-Farmastsevt. Zh. 10 (1976); cited from earlier work
[4] = test system: gastric emptying; assay: Gastric emptying of a test meal in fasted rats; type: in vivo; conditions: fasted rat, 9.0 mg/kg IP 30 min before test meal; measured 60 min after the meal
Description: The procedure used to test compounds of the present invention for gastric motility enhancing activity was that of Droppleman et al, J. Pharmacol. Methods, 4, 227(1980). Each animal was dosed intraperitoneally (9.0 mg/kg) with a test compound or control. After 30 minutes each animal was given 3 ml of a methylcellulose-based test meal formulation. Sixty minutes after administration of the test meal, each animal was killed by cervical dislocation, and the stomach was removed and weighed. The stomach was cut open, rinsed and dried, and reweighed. The difference between the full and empty weights (amount of meal remaining in stomach) was subtracted from the original test meal weight to determine the meal amount emptied from the stomach during the test period.

[5] = test system: 5-HT (serotonin)-induced contractions of the guinea pig ileum; assay: Blockade of serotonin-induced contractions of guinea pig ileum (5-HT antagonist activity); type: cell-based; conditions: 10^-6 M serotonin
[6] = test system: exploratory light/dark behavior; assay: Anxiolytic model, two-compartment exploratory light/dark test in mice; type: in vivo; conditions: mouse, 10 mg/kg IP, 5 minute period; vehicle control 29
Source text: The method has been described by Young and Johnson, Soc. Neurosci. Abs., 1988, 14, 207 and is a modification of the procedures described by Costall and Naylor, Brit. J. Pharmacol. 1988, 93, 985-993; and Crawley, Pharmacol. Biochem. and Behav. 1981, 15, 695-699. A two compartment light-dark activity monitoring device (Digiscan Model RXWZCM16, Omnitech Electronics,Inc., Columbus, Ohio) is used. A 90W light source located 30 cm above the box provides light to the apparatus. Behavioral testing was conducted in a sound attenuated, darkened room illuminated with a red light (25W red bulb) only.
Each animal (mouse) received a dose of either the test, reference, or control article. The mouse was placed at the center of the illuminated area and its behavioral activity tallied over a 5 minute period by use of a Digiscan analyzer. Behavioral variables recorded include: the time spent in the lit and dark areas, the number of rearings in the lit and dark areas, the number of locomotor activity counts in the lit and dark areas, the number of transitions between the lit and dark or dark and lit areas, rearing time in the lit and dark areas, the latency to make the first transition from the lit to the dark areas, locomotor time in the lit and dark areas, and resting time in the lit and dark areas. Appropriate statistical analyses for each measure were performed. […]

| Compound | inhibition in vivo at 1 mg/kg [1] [%] | other results |
| --- | --- | --- |
| 2-(1-Piperidinylmethyl)-1-azabicyclo[2.2.2]oct-3-yl 1-methyl-1H-indole-3-carboxylate cis isomer [XIII (cis isomer)] | – | % inhibition of cisplatin-induced emesis ([1]; dog, 1.0 mg/kg IV given 60 min after cisplatin 3.0 mg/kg IV, emetic episodes recorded for 5 hours): 34% |
| COc1ccc(S(N)(=O)=O)cc1C(=O)NC1CN2CCC1CC2 (stereo not drawn) [5-aminosulfonyl-N-(1-azabicyclo-[2.2.2]oct-3-yl)-2-methoxybenzamide] | – | neuroleptic activity [2]: neuroleptic activity; anti-emetic activity [3]: not to have anti-emetic activity |
| COc1cc(N)c(Cl)cc1C(=O)NC1C2CCN(CC2)C1CN(C)C (stereo not drawn) [Example I, 4-Amino-5-chloro-N-[2-[(dimethylamino)methyl]-1-azabicyclo[2.2.2]oct-3-yl]-2-methoxy-benzamide] | 96 | % change in meal emptied [4]: +36% |
| COc1cc(N)c(Cl)cc1C(=O)NC1C2CCN(CC2)C1CN1CCCCC1 (stereo not drawn) [Example IV, 4-Amino-5-chloro-2-methoxy-N-[2-(1-piperidinylmethyl)-1-azabicyclo[2.2.2]oct-3-yl]benzamide] | 94 | pA2 against serotonin-induced contractions [5]: 6.6 |
| CNc1cc(OC)c(C(=O)NC2C3CCN(CC3)C2CN2CCCCC2)cc1Cl (stereo not drawn) [Example V, 5-Chloro-2-methoxy-4-(methylamino)-N-[2-(1-piperidinylmethyl)-1-azabicyclo[2.2.2]oct-3-yl]benzamide] | 99 | % Time Spent In Lit Area [6]: 51% |
| CSCCOc1cc(N)c(Cl)cc1C(=O)NC1C2CCN(CC2)C1CN(C)C (stereo not drawn) [II, 4-Amino-5-chloro-N-[2-[(dimethylamino)methyl]-1-azabicyclo[2.2.2]oct-3-yl]-2-[2-(methylthio)ethoxy]benzamide] | 47 | – |
| CNc1cc(OC)c(C(=O)NC2C3CCN(CC3)C2CN(C)C)cc1Cl (stereo not drawn) [III, 5-Chloro-N-[2-[(dimethylamino)methyl]-1-azabicyclo[2.2.2]oct-3-yl]-2-methoxy-4-(methylamino)benzamide] | 73 | – |
| COc1cc(N)c(Cl)cc1C(=O)NC1C2CCN(CC2)C1CN1CCCC1 (stereo not drawn) [VI, 4-Amino-5-chloro-2-methoxy-N-[2-(1-pyrrolidinylmethyl)-1-azabicyclo[2.2.2]oct-3-yl]benzamide] | 87 | % change in meal emptied [4]: +33% |
| CNc1cc(OC)c(C(=O)NC2C3CCN(CC3)C2CN2CCCC2)cc1Cl (stereo not drawn) [VII, 5-Chloro-2-methoxy-4-(methylamino)-N-[2-(1-pyrrolidinylmethyl)-1-azabicyclo[2.2.2]oct-3-yl]benzamide] | 87 | – |
| COc1cc(N)c(Cl)cc1C(=O)NC1C2CCN(CC2)C1CN1CCOCC1 (stereo not drawn) [XI, 4-Amino-5-chloro-2-methoxy-N-[2-(4-morpholinylmethyl)-1-azabicyclo[2.2.2]oct-3-yl]benzamide] | 21 | – |
